# Data from patent US6693083B2, “Conjugates targeted to the interleukin-2 receptor” (Watson Pharmaceuticals, Inc., priority 1997, dated 2004).
# “Also recorded” adds a separate entry of the source. Read-outs that look alike come from different tables or passages of the source. Where no end group is shown, it is not given here. PEG = not defined here; ADR = adriamycin
# Key:
# [1] = system: mouse CTLL-2 cells; experiment: In vitro cytotoxic activity against mouse CTLL-2 cells (MTS cell viability assay)
# Protocol: CTLL-2 cells express the IL-2 high affinity receptor. […] Thereafter, cell viability was assessed by a colorimetric method using the tetrazolium compound MTS (3-(4,5-dimethylthiazol-2-yl)-5-(3-carboxymethoxyphenyl)-2-(4-sulfophenyl)-2H-tetrazolium, inner salt) and an electron coupling reagent, PMS (phenazine methosulfate). A. J. Cory et al., 3 Cancer Commun. […] MTS is bioreduced by living cells into a soluble formazan product. The absorbence of the formazan at 490 nm can be measured directly from 96 well assay plates without additional processing. The quantity of formazan product as measured by the absorbence at 490 nm is directly proportional to the number of living cells in culture. Reagents for the MTS assay were obtained from Promega Corp. (Madison, Wis.). […] The plate was then further incubated at 37° C. in a humidified, 5% CO2 atmosphere for 4 hours. The absorbence of each well was then measured at 490 nm with an EL311 Microplate Autoreader (Bio-Tek Instruments). The mean absorbence for each treatment was then calculated, and the percent cytotoxicity was determined using the formula: [formula]
# wherein AS represents the mean absorbence for each treatment and AC represents mean absorbence of the control treatment, i.e. cells not exposed to a conjugate.
# [2] = system: B10.RIII mice; experiment: Treatment of collagen-induced arthritis (CIA) in B10.RIII mice; details: 2 mg/kg i.p.; for weight loss: alternate day treatment, observed for 84 days, PBS control about 5%±5%
# Protocol: B10.RIII mice were injected with CII (200 μg) emulsified with complete Freund's adjuvant (CFA; 200 μg H37Ra). At day 21, mice were boosted with 100 μg of CII, randomized for CIA severity (13/group), and an alternate day treatment protocol was begun.
# [3] = system: IL-2-induced proliferation of murine splenocytes; experiment: Inhibition of IL-2-induced proliferation of murine splenocytes (trypan blue viable cell count); format: cell-based, mouse; details: for specific binding to the IL-2 receptor: concluded from inhibition of IL-2-induced proliferation (Example 20)
# Protocol: The in vitro effects of IL-2-receptor-targeted conjugates on IL-2-induced proliferation of murine splenocytes was examined.
# A sterile splenocyte suspension was prepared as follows. Spleens were aseptically removed from male C57 BL/6 mice and placed in sterile tissue culture medium (RPMI plus 10% fetal calf serum). The spleens were teased apart and gently aspirated using a Pasteur pipet. The resulting spleen cell suspension was then filtered through sterile gauze and centrifuged at 150×g for 10 minutes at 20° C. […] After 30 seconds, an equal volume of tissue culture medium was added to the suspension to restore isotonicity. The cell suspension was again centrifuged at 150×g for 10 minutes at 20° C., and the resulting cell pellet was washed once using tissue culture medium. The washed cell pellet was finally resuspended in tissue culture medium, and cell density was adjusted to 5×10^6 cells/ml.
# To the wells of a 96-well assay plate (Falcon MICROTEST III), 50 μl volumes of the splenocyte suspension were added. Competitor (conjugate) solutions were prepared and diluted in tissue culture medium and added to the wells of the assay plate in 25 μl volumes. To control wells, 25 μl of tissue culture medium was added. […] To the wells of the assay plate, 25 μl of either tissue culture medium or a solution containing recombinant human IL-2 (Pharmingen) at a concentration of 20 ng/ml (in tissue culture medium) was added.
# Final results were quantitated as follows. Viable cell counts were performed for each separate well of the assay plate using the trypan blue exclusion method. Trypan blue is taken up and imparts a blue color to dead cells. Briefly, an aliquot of cells was twice diluted in 0.4% trypan blue stain (Sigma Chemical Co., St. Louis, Mo.) and incubated for 5 minutes before counting with a hemacytometer and an inverted microscope. The percentage of viable cells was calculated as the number of unstained cells per unit volume divided by the total number of stained and unstained cells×100. Cell counts for each duplicate set of wells were averaged, and cell proliferation was calculated as percent change from control cells using the following formula: [formula]
# Percent inhibition of IL-2 induced proliferation was calculated as follows. [formula]
# [4] = 48 hours incubation, MTS assay, compared by adriamycin concentration
Compound,weight loss [2],"cytotoxicity against CTLL-2 T cells (FIG. 1) [1, 4]",specific binding to the IL-2 receptor [3],further results
"COc1cccc2c1C(=O)c1c(O)c3c(c(O)c1C2=O)C[C@@](O)(C(=O)CO)C[C@@H]3O[C@H]1C[C@H](N)[C@H](O)[C@H](C)O1 [adriamycin, reference compound]",–,–,–,cytotoxicity against CTLL-2 T cells (FIG. 1) [1]: rapidly diffuses into the cells and kills them
"PEG-Gly-Phe-Leu-Gly-ADR (GFLG; PEG and adriamycin conjugated; OTHER INFORMATION: Synthetic Construct) [PEG-GFLG-ADR, reference compound]",about 10%±8%,much lower than that required for PEG-GFLG-ADR,–,–
PEG-TT23-ADR ({PEG}-TGLNRILLGFLG-{ADR}; reading uncertain),about 3%±6%,kills such CTLL-2 T cells at concentrations much lower than that required for PEG-GFLG-ADR; also recorded: requires higher concentrations of adriamycin than unconjugated adriamycin,specifically bind to the IL-2 receptor,"arthritis severity (cumulative daily arthritis scores) ([2]; alternate day treatment from day 21, observed for 84 days, compared to PBS control (P≦0.02)): significantly greater number of mice with only minimum arthritis"
"PEG-TT23: prepared according to Example 1 except that no adriamycin was conjugated; PEG coupled to peptide TT23 (SEQ ID NO:22) (TGLNRILLGFLG; not fully specified (N-terminus); also: PEG conjugate, attachment site not given here)",–,–,specifically binds to the IL-2 receptor,"inhibition of IL-2-induced proliferation of murine splenocytes (FIG. 2) ([3]; recombinant human IL-2, 48 hours, trypan blue exclusion): very effectively inhibits proliferation"
TGLNRILLGFLG [peptide TT23],–,–,–,"amount needed to achieve similar levels of inhibition, relative to PEG-TT23 ([3]; IL-2-induced proliferation of murine splenocytes): about 100 fold"
